Assay results published in ChEMBL document CHEMBL4610099, “Galtonosides A-E: Antiproliferative and Antiplasmodial Cholestane Glycosides from Galtonia regalis” (J Nat Prod, 2020).
Active and inactive are the calls of the source. The calls are words filed in the database; no cut-off is given here.

What was measured:
Erythrocyte [1] = test: Hemolytic activity against human erythrocytes assessed as morphological changes at IC50 concentration up to 72 hrs; format: ADME, cell-based
Erythrocyte [2] = test: Hemolytic activity against human erythrocytes infected with ring stage Plasmodium falciparum Dd2 assessed as reduction in cell viability at 11 uM up to 72 hrs by Giemsa-staining based light microscopic analysis
Plasmodium falciparum [3] = test: Antiplasmodial activity against ring stage Plasmodium falciparum Dd2 assessed as reduction in parasite growth after 72 hrs by SYBR Green 1 staining based assay; format: functional, organism-based; details: Dd2, 72 h
Erythrocyte [4] = test: Hemolytic activity against human erythrocytes infected with ring stage Plasmodium falciparum Dd2 assessed as morphological changes at 11 uM up to 72 hrs by Giemsa-staining based light microscopic analysis; format: ADME, cell-based
A2780 = test: Antiproliferative activity against human A2780 cells assessed as reduction in cell viability after 2 days hrs by AlamarBlue assay; format: functional, cell-based; details: A2780, 48 h
Erythrocyte [5] = test: Hemolytic activity against human erythrocytes infected with ring stage Plasmodium falciparum Dd2 assessed as morphological changes at IC50 concentration up to 72 hrs; format: ADME, cell-based
Plasmodium falciparum [6] = test: Antiplasmodial activity against ring stage Plasmodium falciparum Dd2 infected in human erythrocytes assessed as reduction in trophozoites formation at 11 uM up to 72 hrs by Giemsa-staining based light microscopic analysis; format: functional, organism-based
Plasmodium falciparum [7] = test: Antiplasmodial activity against ring stage Plasmodium falciparum Dd2 infected in human erythrocytes assessed as reduction in trophozoites formation at 6 uM up to 72 hrs by Giemsa-staining based light microscopic analysis; format: functional, organism-based
Erythrocyte [8] = test: Hemolytic activity against human erythrocytes infected with ring stage Plasmodium falciparum Dd2 assessed as reduction in cell viability at 6 uM up to 72 hrs by Giemsa-staining based light microscopic analysis
Erythrocyte [9] = test: Hemolytic activity against human erythrocytes infected with ring stage Plasmodium falciparum Dd2 assessed as morphological changes at 6 uM up to 72 hrs by Giemsa-staining based light microscopic analysis; format: ADME, cell-based
Erythrocyte [10] = test: Hemolytic activity against human erythrocytes infected with ring stage Plasmodium falciparum Dd2 assessed as reduction in cell viability at 3 uM up to 72 hrs by Giemsa-staining based light microscopic analysis
Plasmodium falciparum [11] = test: Antiplasmodial activity against ring stage Plasmodium falciparum Dd2 infected in human erythrocytes assessed as reduction in trophozoites formation at 3 uM up to 72 hrs by Giemsa-staining based light microscopic analysis; format: functional, organism-based
Erythrocyte [12] = test: Hemolytic activity against human erythrocytes infected with ring stage Plasmodium falciparum Dd2 assessed as morphological changes at 3 uM up to 72 hrs by Giemsa-staining based light microscopic analysis; format: ADME, cell-based

IC50 (A2780) [nM] | Compound | Activity (Erythrocyte [1]) | Activity (Erythrocyte [2]) | IC50 (Plasmodium falciparum [3]) [nM] | Activity (Erythrocyte [4]) | Activity (Erythrocyte [5]) | Activity (Plasmodium falciparum [6]) | Activity (Plasmodium falciparum [7]) | Activity (Erythrocyte [8]) | Activity (Erythrocyte [9]) | Activity (Erythrocyte [10]) | Activity (Plasmodium falciparum [11]) | Activity (Erythrocyte [12])
100 | COc1ccc(C(=O)O[C@H]2[C@H](O[C@@H]3[C@@H](OC(C)=O)[C@H](O[C@H]4C[C@H]5[C@@H]6CC=C7C[C@@H](O)CC[C@]7(C)[C@H]6CC[C@]5(C)[C@H]4[C@H](C)C(=O)CCC(C)C)OC[C@@H]3O)OC[C@@H](O)[C@@H]2O)cc1OC | Non-Toxic | Non-Toxic | 630 | Non-Toxic | Non-Toxic | Active |  |  |  |  |  | 
100 | COc1ccc(C(=O)O[C@H]2[C@H](O[C@@H]3[C@@H](OC(C)=O)[C@H](O[C@H]4C[C@H]5[C@@H]6CC=C7C[C@@H](O)CC[C@]7(C)[C@H]6CC[C@]5(C)[C@@]4(O)[C@H](C)C(=O)CCC(C)C)OC[C@@H]3O)OC[C@@H](O)[C@@H]2O)cc1OC | Non-Toxic |  | 1510 |  | Non-Toxic |  |  |  |  |  |  | 
100 | COc1cc(C(=O)O[C@H]2[C@H](O[C@@H]3[C@@H](OC(C)=O)[C@H](O[C@H]4C[C@H]5[C@@H]6CC=C7C[C@@H](O)CC[C@]7(C)[C@H]6CC[C@]5(C)[C@H]4[C@H](C)C(=O)CCC(C)C)OC[C@@H]3O)OC[C@@H](O)[C@@H]2O)cc(OC)c1OC | Non-Toxic | Non-Toxic | 610 | Non-Toxic | Non-Toxic | Active |  |  |  |  |  | 
100 | CC(=O)O[C@H]1[C@H](O[C@H]2C[C@H]3[C@@H]4CC=C5C[C@@H](O)CC[C@]5(C)[C@H]4CC[C@]3(C)[C@@]2(O)[C@H](C)C(=O)CCC(C)C)OC[C@H](O)[C@@H]1O[C@@H]1OC[C@@H](O)[C@H](O)[C@H]1OC(=O)/C=C/c1ccccc1 | Non-Toxic |  | 950 |  | Non-Toxic |  |  |  |  |  |  | 
 | C[C@@H]1CC[C@H]2[C@@H](C)C(=O)O[C@@H]3O[C@@]4(C)CC[C@@H]1[C@]32OO4 [ARTEMISININ] |  |  | 6.5 |  |  |  |  |  |  |  |  | 
100 | CC(=O)O[C@H]1[C@H](O[C@H]2C[C@H]3[C@@H]4CC=C5C[C@@H](O)CC[C@]5(C)[C@H]4CC[C@]3(C)[C@H]2[C@H](C)C(=O)CCC(C)C)OC[C@H](O)[C@@H]1O[C@@H]1OC[C@@H](O)[C@H](O)[C@H]1OC(=O)/C=C/c1ccccc1 | Non-Toxic |  | 420 |  | Non-Toxic |  | Active | Non-Toxic | Non-Toxic |  |  | 
90 | COc1cc(C(=O)O[C@H]2[C@H](O[C@@H]3[C@@H](OC(C)=O)[C@H](O[C@H]4C[C@H]5[C@@H]6CC=C7C[C@@H](O)CC[C@]7(C)[C@H]6CC[C@]5(C)[C@@]4(O)[C@H](C)C(=O)CCC(C)C)OC[C@@H]3O)OC[C@@H](O)[C@@H]2O)cc(OC)c1OC | Non-Toxic | Non-Toxic | 560 | Non-Toxic | Non-Toxic | Active |  |  |  |  |  | 
140 | COc1ccc(C(=O)O[C@H]2[C@H](O[C@H]3C[C@H]4[C@@H]5CC=C6C[C@@H](O)CC[C@]6(C)[C@H]5CC[C@]4(C)[C@@]3(O)[C@H](C)C(=O)CCC(C)C)OC[C@H](O)[C@@H]2O)cc1OC | Non-Toxic |  | 210 |  | Non-Toxic |  |  |  |  | Non-Toxic | Active | Non-Toxic
